The values below are quoted from earlier work in patent publication US10912471B2, “System and method for automatic perfusion measurement” (priority 2018, dated 2021).

One data set relates to plasma proteins. To be noted: becomes confined to the vascular system.
For data set [1] the following is noted: administration not without risks, e.g. during pregnancy.

Turning to `CC1(C)C(/C=C/C=C/C=C/C=C2\N(CCCCS(=O)(=O)O)c3ccc4ccccc4c3C2(C)C)=[N+](CCCCS(=O)(=O)[O-])c2ccc3ccccc3c21` [ICG, Indocyanine green], the “binding to plasma proteins” value in the data set with plasma proteins is reported as “binds tightly to plasma proteins”. The toxicity classification result in data set [1] is given as “low”.
